The results in this text go back to patent US20180163178A1, “AUF1 ENCODING COMPOSITIONS FOR MUSCLE CELL UPTAKE, SATELLITE CELL POPULATIONS, AND SATELLITE CELL MEDIATED MUSCLE GENERATION” (priority 2015, published 2018).

The test system of experiment [1] is PAX7+ satellite cell population. The procedure:
(§1) Male and female mice 4-6 months of age were injected by 20 uL 1.2% BaCl2 in saline directly to the left TA muscle. Right TA muscle was left uninjured. Mice were monitored and sacrificed by protocol for 1-30 days post-injection. 2 mice per genotype per time point were studied.
Male and female mice 4-6 months of age had their TA removed and preserved in OCT. Skeletal muscle samples were prepared as previously described (Bernet et al., “p38 MAPK Signaling Underlies a Cell-autonomous Loss of Stem Cell Self-renewal in Skeletal Muscle of Aged Mice,” Nature Medicine 20:265-271 (2014), which is hereby incorporated by reference in its entirety). Samples were post-fixed in 4% paraformaldehyde and blocked in 3% BSA in TBS-T. Primary antibodies were incubated at 4° C. overnight. Alexa Fluor donkey 488, 555, and 647 secondary antibodies were used at 1:500 and incubated for 1 hour at room temperature. Slides were sealed with Vectashield with DAPI. The following antibody dilutions were used: rat antibody to Laminin (Sigma, L0663, 1:250), mouse antibody to PAX7 (Santa Cruz Biotechnology, SC-81648, 1:500), goat antibody to hnRNPD (Santa Cruz Biotechnology, SC-22368, 1:250).
Images were acquired using a Zeiss LSM 700 confocal microscope, primarily with the 20× lens. Images were processed and scored using ImageJ64. If needed, color balance was adjusted linearly for the entire image and all images in experimental set. All images were quantified based on field of view. At least 5 images per experimental animal and at least 2 animals per genotype were used for all experiments.
(§2) KO male and female mice 4 months of age were given an IP injection with 25 mg/kg SB-3CT (Sigma-Aldrich) every 24 h, starting 24 h prior to BaCl2 injury with MMPSense injection. Three mice per treatment were analyzed, then means and standard deviations calculated. Data were analyzed with an unpaired t-test.

For another experiment, the target named is MMP9 (Mus musculus, UniProt P41245). To be noted: auf1 KO mice. The method, then:
as §1
Data were analyzed with an unpaired t-test.
as §2

Structures are written as SMILES.

Sequence of MMP9 (P41245 108-730): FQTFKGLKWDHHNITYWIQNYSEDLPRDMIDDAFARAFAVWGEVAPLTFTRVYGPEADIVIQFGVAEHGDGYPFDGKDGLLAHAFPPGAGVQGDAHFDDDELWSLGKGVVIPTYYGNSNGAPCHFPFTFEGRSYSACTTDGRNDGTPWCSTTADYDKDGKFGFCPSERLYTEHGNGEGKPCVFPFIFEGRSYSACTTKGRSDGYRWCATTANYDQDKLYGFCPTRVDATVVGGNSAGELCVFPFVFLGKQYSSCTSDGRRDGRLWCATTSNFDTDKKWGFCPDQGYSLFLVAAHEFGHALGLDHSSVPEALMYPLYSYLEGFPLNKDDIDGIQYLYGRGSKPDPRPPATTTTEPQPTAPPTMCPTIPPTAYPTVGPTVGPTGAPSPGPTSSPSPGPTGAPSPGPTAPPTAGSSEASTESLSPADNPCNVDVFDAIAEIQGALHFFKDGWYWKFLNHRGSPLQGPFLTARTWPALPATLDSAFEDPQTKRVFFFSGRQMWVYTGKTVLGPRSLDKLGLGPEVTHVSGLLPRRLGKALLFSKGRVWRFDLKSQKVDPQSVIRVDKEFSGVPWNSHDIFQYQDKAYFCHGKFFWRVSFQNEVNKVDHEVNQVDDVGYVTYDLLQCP

In the case of `O=S(=O)(CC1CS1)c1ccc(Oc2ccccc2)cc1` (centres unmarked) [SB-3CT], the “expansion of the PAX7+ satellite cell population (FIG. 11C)” value in experiment [1] (SB-3CT treated auf1 KO mice, 7 days post-injury) is given as “significant increased expansion”. The “increase in the PAX7+ satellite cell population (FIG. 11D)” value in experiment [1] (auf1 KO mice, SB-3CT treatment, 7 days post-injury, vs untreated KO) was approximately 4 fold. In addition, the muscle wound repair entry in experiment [1] (injured auf1 KO mice, SB-3CT treatment) was “restoration of muscle wound repair”. Moreover, the “muscle fiber morphology (FIG. 11C)” value in experiment [1] (injured, SB-3CT treated auf1 KO mice) is recorded as “near-normal muscle fibers were evident”. The “Laminin expression (FIG. 11C)” value in experiment [1] (injured, SB-3CT treated auf1 KO mice, 7 days post-injury) is on record as “strongly increased”. Further, the “reduction in MMP9 activity (bioluminescence analysis, FIG. 11B)” value on MMP9 (SB-3CT IP daily from 24 h prior to BaCl2 TA injury, injured TA 24 h post-injury, vs untreated KO) is more than 5 fold. For the same compound, at MMP9 (SB-3CT IP daily, IVIS imaging), the “MMP9 activity at the site of IP injection (FIG. 11A)” value was “near complete extinction of MMP9 activity”. In addition, at MMP9 (SB-3CT IP daily, IVIS imaging 24 h after injury), the “MMP9 activity in the injured TA muscle (FIG. 11A)” value is listed as “significantly reduced MMP9 activity”.
